Test [1] concerns the target His-tagged recombinant human ABL1 (Homo sapiens (Human), UniProt P00519). The following applies: read-out: c-Abl IC50; 25 µM ATP, Abltide substrate, 30° C. 30-min.
Procedure: ADP-Glo assay kit was purchased from Promega. Magnesium chloride (MgCl2), bovine serum albumin (BSA), ethylene glycol-bis(β-aminoethyl ether)-N,N,N′,N′-tetraacetic acid (EGTA), tween-20, 1,4-dithiothreitol (DTT) and dimethyl sulfoxide (DMSO) were purchased from Sigma-Aldrich. HEPES buffer was purchased from Gibco. ABL1 kinase and Abltide were purchased from Signalchem.
c-Abl kinase activity was measured by Promega’s ADP-Glo ® Assay. In this assay, His-tagged recombinant human ABL1 (0.25 ng/µl) is incubated with 5 µL of compounds (0.5% DMSO), 5 µL of Abltide (0.01 µg/µl) and 5 µL of ATP (25 µM) in buffer (50 mM HEPES,7.5; 10 mM MgCl2; 1 mM EGTA; 0.05% BSA; 0.01% Tween-20; 2 mM DTT.). The assay was started by incubating the reaction mixture in a 96-well plate at 30° C. for 30-min. After the incubation, 25 µL ADP-Glo reagent was added and the reaction was incubated at room temperature for 40-min to stop the reaction and degrade residual ATP. The ADP product was then converted to ATP by adding 50 µL per well of detection reagent. Luminescence was detected after 30-min room temperature incubation with the Molecular device I3X plate reader. The IC50 values were calculated from a series of percent inhibition values determined at a range of inhibitor concentration using software routines as implemented in the GraphPad Prism 7 software and Sigma Plot 13.0.
Test [2] concerns IL-6 secretion in BV-2 cell. Description: IL-6 Secretion in BV-2 Cell (L18-MDP stimulated, ELISA). It counts as cell-based. The following applies: BV-2 mouse microglia cells, 10 µg/ml L18-MDP, 24 hr. As to the method:
IL-6 Secretion in BV-2 Cell
BV-2 mouse microglia cells were kindly provided from Dr. Bae in Korea Institute of Science and Technology (KIST). BV-2 cells were thawed and suspended in Dulbecco’s modified eagle medium (DMEM) supplemented with 10% fetal bovine serum (FBS) and 1% Penicillin/Streptomycin. Cells were seeded into 96 well plates at 2X10^4 cells/well and allowed to attach for 24 hr. On the day of the experiment, various concentration of compounds were treated, and cells were stimulated with 10 µg/ml L18-MDP. After 24 hr incubation, supernatant was collected for cytokine assay.
Absorbance at 450 nm was measured using SpectraMax I3X microplate reader (Molecular Device). Values of media-only wells were subtracted and % inhibition for each compound concentration relative to the DMSO/L18-MDP-treated controls (100%) was calculated.
(In general: ELISA stands for enzyme-linked immunosorbent assay.)

The target in test [3] is GST-tagged recombinant human RIPK2 (Homo sapiens (Human), UniProt O43353). Description: RIP2 Kinase Assay (ADP-Glo). The class given is biochemical. The following applies: 25 µM ATP, MBP substrate, 30° C. 60 minutes. In general terms: In ADP-Glo the light output rises with the ADP produced.
GST-tagged recombinant human RIPK2, sequence (O43353 whole entry): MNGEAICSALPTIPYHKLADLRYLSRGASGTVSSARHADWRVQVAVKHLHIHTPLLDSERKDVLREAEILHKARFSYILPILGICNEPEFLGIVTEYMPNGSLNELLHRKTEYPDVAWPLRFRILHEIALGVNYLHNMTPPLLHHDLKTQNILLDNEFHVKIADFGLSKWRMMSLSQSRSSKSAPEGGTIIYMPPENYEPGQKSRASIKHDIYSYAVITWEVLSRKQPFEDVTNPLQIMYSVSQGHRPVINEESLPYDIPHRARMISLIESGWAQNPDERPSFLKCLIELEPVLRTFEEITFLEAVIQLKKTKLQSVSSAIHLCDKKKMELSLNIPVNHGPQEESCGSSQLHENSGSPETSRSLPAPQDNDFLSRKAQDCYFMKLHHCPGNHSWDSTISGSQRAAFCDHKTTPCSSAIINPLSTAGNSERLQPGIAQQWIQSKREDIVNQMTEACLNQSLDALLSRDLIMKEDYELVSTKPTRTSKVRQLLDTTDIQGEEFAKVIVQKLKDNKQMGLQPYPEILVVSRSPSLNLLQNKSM
Procedure: GST-tagged recombinant human RIPK2(25 ng) is incubated with 5 µL of compounds (0.5% DMSO), 5 µL of MBP (0.5 µg/µl) and 5 µL of ATP (25 µM) in buffer (40 mM Tris, 7.5; 20 mM MgCl2; 0.1 mg/ml BSA; 50 µM DTT). The assay was started by incubating the reaction mixture in a 96-well plate at 30° C. for 60 minutes. After the incubation, 25 µL ADP-Glo reagent was added, and the reaction was incubated at 30° C. for 40 minutes to stop the reaction and degrade residual ATP. The ADP product was then converted to ATP by adding 50 µL per well of detection reagent. Luminescence was detected after 30 minutes room temperature incubation with the Molecular device I3X plate reader. The IC50 values were calculated from a series of percent inhibition values determined at a range of inhibitor concentration using software routines as implemented in the GraphPad Prism 7 software or SigmaPlot 13.0.

His-tagged recombinant human ABL1, sequence (P00519 whole entry): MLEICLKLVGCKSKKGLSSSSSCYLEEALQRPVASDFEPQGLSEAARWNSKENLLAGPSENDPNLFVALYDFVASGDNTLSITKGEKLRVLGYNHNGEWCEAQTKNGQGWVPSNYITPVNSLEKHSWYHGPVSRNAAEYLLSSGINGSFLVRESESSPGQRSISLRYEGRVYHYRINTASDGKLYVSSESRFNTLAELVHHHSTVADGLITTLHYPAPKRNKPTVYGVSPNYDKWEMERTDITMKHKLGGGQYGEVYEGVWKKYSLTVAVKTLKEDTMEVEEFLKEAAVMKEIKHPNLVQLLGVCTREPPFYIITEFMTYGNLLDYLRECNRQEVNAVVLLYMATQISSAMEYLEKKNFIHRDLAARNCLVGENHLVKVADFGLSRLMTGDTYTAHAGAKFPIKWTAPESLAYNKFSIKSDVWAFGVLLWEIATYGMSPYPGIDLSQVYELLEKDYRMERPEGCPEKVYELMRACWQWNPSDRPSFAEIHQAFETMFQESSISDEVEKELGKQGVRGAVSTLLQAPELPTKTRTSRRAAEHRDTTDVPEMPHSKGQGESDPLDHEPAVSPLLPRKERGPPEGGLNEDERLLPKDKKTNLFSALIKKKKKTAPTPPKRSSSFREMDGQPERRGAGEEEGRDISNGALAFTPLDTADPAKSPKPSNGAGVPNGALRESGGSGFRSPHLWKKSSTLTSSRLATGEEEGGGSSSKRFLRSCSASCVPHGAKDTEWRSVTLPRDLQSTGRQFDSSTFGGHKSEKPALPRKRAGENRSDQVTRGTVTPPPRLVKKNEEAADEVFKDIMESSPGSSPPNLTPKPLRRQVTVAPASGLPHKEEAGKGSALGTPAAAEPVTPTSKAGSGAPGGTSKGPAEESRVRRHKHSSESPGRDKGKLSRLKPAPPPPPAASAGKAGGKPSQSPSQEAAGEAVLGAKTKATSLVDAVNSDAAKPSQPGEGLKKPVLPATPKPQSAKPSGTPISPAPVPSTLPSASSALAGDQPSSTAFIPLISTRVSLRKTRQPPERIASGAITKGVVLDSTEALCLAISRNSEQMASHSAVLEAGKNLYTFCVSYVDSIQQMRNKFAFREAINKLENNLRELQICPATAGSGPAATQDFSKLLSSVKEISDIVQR

In general, IC50 refers to the concentration at which inhibition is half-maximal. Regarding `Cc1nc2[nH]ccc2cc1-c1ccn2nc(NC(=O)[C@@H]3C[C@@H]3F)cc2c1` [Example 3, (1S,2S)-2-fluoro-N-(5-(6-methyl-1 H-pyrrolo[2,3-b]pyridin-5-yl)pyrazolo[1,5-a]pyridin-2-yl)cyclopropane-1-carboxamide], the IC50 in test [1] worked out at 0.7 nM; in test [2], 332 nM; in test [3], 25 nM.
As to `O=C(Nc1cc2cc(-c3cc4cc[nH]c4nc3Cl)ccn2n1)[C@@H]1C[C@@H]1F` [Example 4, (1S,2S)-N-(5-(6-chloro-1H-pyrrolo[2,3-b]pyridin-5-yl)pyrazolo[1,5-a]pyridin-2-yl)-2-fluorocyclopropane-1-carboxamide], the IC50 in test [1] worked out at 1.2 nM; in test [2], 351 nM; in test [3], 13.9 nM.
`O=C(Nc1cc2cc(-c3cnc4[nH]ccc4c3F)ccn2n1)[C@@H]1C[C@@H]1F` [Example 5, (1 S,2S)-2-fluoro-N-(5-(4-fluoro-1 H-pyrrolo[2,3-b]pyridin-5-yl)pyrazolo[1,5-a]pyridin-2-yl)cyclopropane-1-carboxamide]: the IC50 stood at 11.2 nM in test [1], 600 nM in test [2] and 48.4 nM in test [3].
On to `COc1c(-c2ccn3nc(NC(=O)[C@@H]4C[C@@H]4F)cc3c2)cnc2[nH]ccc12` [Example 6, (1S,2S)-2-fluoro-N-(5-(4-methoxy-1H-pyrrolo[2,3-b]pyridin-5-yl)pyrazolo[1,5-a]pyridin-2-yl)cyclopropane-1-carboxamide], for which the IC50 in test [1] stood at 9 nM; in test [2], 806 nM; in test [3], 168 nM.
On the same counts, the results for `O=C(Nc1cc2cc(-c3cnc4[nH]cc(F)c4c3)ccn2n1)[C@@H]1C[C@@H]1F` [Example 7, (1S,2S)-2-fluoro-N-(5-(3-fluoro-1 H-pyrrolo[2,3-b]pyridin-5-yl)pyrazolo[1,5-a]pyridin-2-yl)cyclopropane-1-carboxamide] are 3.6 nM, 732 nM and 24.3 nM.
The like results for `Cc1cc2cc(-c3ccn4nc(NC(=O)[C@@H]5C[C@@H]5F)cc4c3)cnc2[nH]1` [Example 8, (1S,2S)-2-fluoro-N-(5-(2-methyl-1H-pyrrolo[2,3-b]pyridin-5-yl)pyrazolo[1,5-a]pyridin-2-yl)cyclopropane-1-carboxamide] were, in that order, 4 nM, 625 nM and 84.3 nM.
Regarding `Cc1c(-c2ccn3nc(NC(=O)[C@@H]4C[C@@H]4F)cc3c2)cnc2[nH]ccc12` [Example 9, (1S,2S)-2-fluoro-N-(5-(4-methyl-1H-pyrrolo[2,3-b]pyridin-5-yl)pyrazolo[1,5-a]pyridin-2-yl)cyclopropane-1-carboxamide], the IC50 in test [1] was determined as 3.1 nM; in test [2] it was 101 nM; in test [3], 8.77 nM.
With `Nc1c(-c2ccn3nc(NC(=O)[C@@H]4C[C@@H]4F)cc3c2)cnc2[nH]ccc12` [Example 10, (1S,2S)-N-(5-(4-amino-1H-pyrrolo[2,3-b]pyridin-5-yl)pyrazolo[1,5-a]pyridin-2-yl)-2-fluorocyclopropane-1-carboxamide], the IC50 in test [1] turned out to be 54.2 nM; in test [2], 3940 nM; in test [3], 91.5 nM.
Turning to `O=C(Nc1cc2cc(-c3cnc4[nH]cc(Cl)c4c3)ccn2n1)[C@@H]1C[C@@H]1F` [Example 11, (1S,2S)-N-(5-(3-chloro-1H-pyrrolo[2,3-b]pyridin-5-yl)pyrazolo[1,5-a]pyridin-2-yl)-2-fluorocyclopropane-1-carboxamide], the IC50 stood at 3.2 nM in test [1], 654 nM in test [2] and 33.4 nM in test [3].
In the case of `Cc1c[nH]c2ncc(-c3ccn4nc(NC(=O)[C@@H]5C[C@@H]5F)cc4c3)cc12` [Example 12, (1S,2S)-2-fluoro-N-(5-(3-methyl-1H-pyrrolo[2,3-b]pyridin-5-yl)pyrazolo[1,5-a]pyridin-2-yl)cyclopropane-1-carboxamide], the IC50 in test [1] was determined as 2.5 nM; in test [2], 687 nM; in test [3], 88.6 nM.
For `CCc1c(-c2ccn3nc(NC(=O)[C@@H]4C[C@@H]4F)cc3c2)cnc2[nH]ccc12` [Example 13, (1S,2S)-N-(5-(4-ethyl-1H-pyrrolo[2,3-b]pyridin-5-yl)pyrazolo[1,5-a]pyridin-2-yl)-2-fluorocyclopropane-1-carboxamide], the figures for the IC50 in test [1] and in test [3] were 12.3 nM and 129 nM, respectively.
With `CSc1c(-c2ccn3nc(NC(=O)[C@@H]4C[C@@H]4F)cc3c2)cnc2[nH]ccc12` [Example 14, (1S,2S)-2-fluoro-N-(5-(4-(methylthio)-1H-pyrrolo[2,3-b]pyridin-5-yl)pyrazolo[1,5-a]pyridin-2-yl)cyclopropane-1-carboxamide], the figures for the IC50 in test [1] and in test [3] were 12.2 nM and 195 nM, respectively.
On the same counts, the results for `CC(C)c1c(-c2ccn3nc(NC(=O)[C@@H]4C[C@@H]4F)cc3c2)cnc2[nH]ccc12` [Example 15, (1S,2S)-2-fluoro-N-(5-(4-isopropyl-1H-pyrrolo[2,3-b]pyridin-5-yl)pyrazolo[1,5-a]pyridin-2-yl)cyclopropane-1-carboxamide] are 159 nM and 828 nM.
Turning to `O=C(Nc1cc2cc(-c3cnc4[nH]ccc4c3C3CC3)ccn2n1)[C@@H]1C[C@@H]1F` [Example 16, (1S,2S)-N-(5-(4-cyclopropyl-1 H-pyrrolo[2,3-b]pyridin-5-yl)pyrazolo[1,5-a]pyridin-2-yl)-2-fluorocyclopropane-1-carboxamide], the IC50 came out at 13 nM in test [1] and 204 nM in test [3].
As to `N#Cc1c(-c2ccn3nc(NC(=O)[C@@H]4C[C@@H]4F)cc3c2)cnc2[nH]ccc12` [Example 17, (1S,2S)-N-(5-(4-cyano-1H-pyrrolo[2,3-b]pyridin-5-yl)pyrazolo[1,5-a]pyridin-2-yl)-2-fluorocyclopropane-1-carboxamide], the half-inhibitory concentration (IC50) worked out at 20.2 nM in test [1] and 70.2 nM in test [3].
Consider `O=C(Nc1cc2cc(-c3cnc4[nH]c(Cl)cc4c3)ccn2n1)[C@@H]1C[C@@H]1F` [Example 18, (1S,2S)-N-(5-(2-chloro-1H-pyrrolo[2,3-b]pyridin-5-yl)pyrazolo[1,5-a]pyridin-2-yl)-2-fluorocyclopropane-1-carboxamide], for which the 50% inhibitory concentration (IC50) in test [1] amounted to 3.6 nM; in test [3], 30.5 nM.
Consider `Cc1c(-c2ccn3nc(NC(=O)[C@H]4C[C@H]4F)cc3c2)cnc2[nH]ccc12` [Example 20, (1R,2R)-2-fluoro-N-(5-(4-methyl-1H-pyrrolo[2,3-b]pyridin-5-yl)pyrazolo[1,5-a]pyridin-2-yl)cyclopropane-1-carboxamide], for which the IC50 in test [1] was 3.1 nM; in test [2], 65.5 nM; in test [3], 8.37 nM.
Regarding `Cc1c(-c2ccn3nc(NC(=O)[C@H]4C[C@@H]4F)cc3c2)cnc2[nH]ccc12` [Example 21, (1R,2S)-2-fluoro-N-(5-(4-methyl-1H-pyrrolo[2,3-b]pyridin-5-yl)pyrazolo[1,5-a]pyridin-2-yl)cyclopropane-1-carboxamide], the IC50 in test [1] is 3.3 nM; in test [2] it was 61.4 nM; in test [3], 8.25 nM.
On the same counts, the results for `Cc1c(-c2ccn3nc(NC(=O)[C@@H]4C[C@H]4F)cc3c2)cnc2[nH]ccc12` [Example 22, (1S,2R)-2-fluoro-N-(5-(4-methyl-1H-pyrrolo[2,3-b]pyridin-5-yl)pyrazolo[1,5-a]pyridin-2-yl)cyclopropane-1-carboxamide] are 4.2 nM, 57.1 nM and 15.9 nM.
`O=C(Nc1cc2cc(-c3cnc4[nH]ccc4c3Cl)ccn2n1)C1CC1` [Example 23, N-(5-(4-chloro-1H-pyrrolo[2,3-b]pyridin-5-yl)pyrazolo[1,5-a]pyridin-2-yl)cyclopropanecarboxamide]: the figures for the concentration for half-maximal inhibition (IC50) in test [1] and in test [3] were 9.2 nM and 19.9 nM, respectively.
As for `Cc1c(-c2ccn3nc(NC(=O)[C@@H]4C[C@@H]4F)cc3c2)cnc2[nH]cc(F)c12` [Example 24, (1S,2S)-2-fluoro-N-(5-(3-fluoro-4-methyl-1H-pyrrolo[2,3-b]pyridin-5-yl)pyrazolo[1,5-a]pyridin-2-yl)cyclopropane-1-carboxamide], the IC50 in test [1] was found to be 2.9 nM; in test [2] it was 75.7 nM; in test [3], 14.9 nM.
Turning to `Cc1c(-c2ccn3nc(NC(=O)[C@@H]4C[C@@H]4F)cc3c2)cnc2[nH]cc(Cl)c12` [Example 25, (1S,2S)-N-(5-(3-chloro-4-methyl-1H-pyrrolo[2,3-b]pyridin-5-yl)pyrazolo[1,5-a]pyridin-2-yl)-2-fluorocyclopropane-1-carboxamide], the IC50 came to 1.7 nM in test [1] and 32.2 nM in test [3].
As for `O=C(Nc1cc2cc(-c3cnc4[nH]ccc4c3Cl)ccn2n1)[C@@H]1C[C@H]1F` [Example 26, (1S,2R)-N-(5-(4-chloro-1H-pyrrolo[2,3-b]pyridin-5-yl)pyrazolo[1,5-a]pyridin-2-yl)-2-fluorocyclopropane-1-carboxamide], the IC50 in test [1] worked out at 19.4 nM; in test [3] it was 16.1 nM.
Turning to `O=C(Nc1cc2cc(-c3cnc4[nH]ccc4c3Cl)ccn2n1)[C@H]1C[C@H]1F` [Example 28, (1R,2R)-N-(5-(4-chloro-1H-pyrrolo[2,3-b]pyridin-5-yl)pyrazolo[1,5-a]pyridin-2-yl)-2-fluorocyclopropane-1-carboxamide], the IC50 amounted to 13.9 nM in test [1] and 21.5 nM in test [3].

Values taken from patent US20230339978A1, “COMPOUNDS FOR PREVENTION OR TREATMENT OF NEURODEGENERATIVE DISORDERS” (1ST Biotherapeutics, Inc., priority 2020, published 2023).
